Reference: patent publication US20040009921A1, “Methods and compositions for the treatment of cancer” (Allergan, Inc., priority 2002, published 2004)

Experiments:
β-catenin mRNA = test: Northern blotting of β-catenin mRNA in RBC cells; type: cell-based, human; details: RBC cells treated overnight (17 hours)
Experimental: (A) Western blotting analysis of HEK293 cells transfected with a combination of expression vectors for LacZ (2 μg), V5-tagged β-catenin(4 μg), and Flag-tagged RXRα (2 μg) as indicated below the gels. […] RXRα protein was measured using an HRP-conjugated mouse monoclonal antibody against the Flag tag. (B) Western blotting analysis of stable cell line RBC that overexpresses both β-catenin and RXRα. […] (C) Western blotting analysis of stable cell line CAT that overexpresses only β-catenin. […] Endogenous and overexpressed β-catenin were detected using a rabbit polyclonal antibody as indicated by “Total” whereas overexpressed β-catenin was analyzed using a mouse monoclonal antibody against the V5 tag. Endogenous and overexpressed RXRα were detected by a rabbit polyclonal antibody against RXRα, whereas overexpressed RXRα was determined by an HRP-conjugated mouse monoclonal antibody against the Flag tag. (D) Western blotting analysis of HEK293 cells transfected with a fixed amount of β-catenin (4 μg) plus an increasing amount of RXRα as indicated at the top. […] (E) Western blotting analysis of HEK293, CV-1, and Hela cells transfected with 2 μg of RXRα and 4 μg of wild type or mutant β-catenin. α. […] (F) Northern blotting analysis of RBC cells using β-catenin as a probe.

β-galactosidase = test: Western blotting of β-galactosidase control (LacZ) in HEK293 cells; type: cell-based; details: HEK293 cotransfected with LacZ, 0.1 μM
Experimental: (A) Western blotting analysis of HEK293 cells transfected with a combination of expression vectors for LacZ (2 μg), V5-tagged β-catenin(4 μg), and Flag-tagged RXRα (2 μg) as indicated below the gels. […] RXRα protein was measured using an HRP-conjugated mouse monoclonal antibody against the Flag tag. […] Endogenous and overexpressed β-catenin were detected using a rabbit polyclonal antibody as indicated by “Total” whereas overexpressed β-catenin was analyzed using a mouse monoclonal antibody against the V5 tag. Endogenous and overexpressed RXRα were detected by a rabbit polyclonal antibody against RXRα, whereas overexpressed RXRα was determined by an HRP-conjugated mouse monoclonal antibody against the Flag tag. (D) Western blotting analysis of HEK293 cells transfected with a fixed amount of β-catenin (4 μg) plus an increasing amount of RXRα as indicated at the top.
HEK293 cells were seeded at a density of 2×10 per dish were seeded into 100-mm dishes and cultured overnight in DMEM containing 10% FBS. Cells were transfected with 1-4 μg of various cDNA or parental expression vectors (8 μg of DNA in total) using Lipofectamine®. […]
Total cell lysates were homogenized by passing through a QIAshredder® (Qiagen) and cleared from insoluble materials by centriftigation at 12,000 g. Protein concentration was determined using a Bradford total protein assay kit (Bio-Rad). […]

[1] = tested on: β-catenin-driven gene transcription in APC-negative colorectal cancer cell line SW480; test: Topflash reporter gene assay in SW480 cells; type: cell-based
Experimental: Cultured cells were transfected with 100 ng of reporter gene Topflash® together with expression vectors indicated under each graph. […] (A) Data from HEK293 cells co-transfected with wild type or mutant β-catenin (200 ng) and RXRα (20 ng). (B) CAT, a stable cell line that overexpresses β-catenin (left panel). RBC, a stable cell line that overexpresses both RXRα and β-catenin. (C) SW480, a colorectal cancer cell line, was transfected with 100 ng of Topflash®. The amount of RXRα cotransfected was indicated below the X axis. Reporter activity on the Y axis is expressed as either Luciferase Unit or percentage of activity in cells transfected with Topflash® alone.
For transfection of the HEK293 cell line, cells were seeded at a density of 50,000 cells per well in 24-well plates coated with poly-D-Lysine (Becton Dickinson). […] Harvested cells were lysed, and luciferase activity was measured as previously described (de Wet, J. R., Wood, K. V., DeLuca, M., Helinski, D. R., Subramani, S. (1987) Mol. Cell. Biol. 7, 725-737). In cells transfected with the LacZ control gene, β-galactosidase activity was measured by standard colorimetric assays. Renilla reniformis […] activity was determined using the Dual-Luciferase Reporter 100 Assay System (Promega Corporation, 2800 Woods Hollow Road, Madison Wis. USA 53711). […]

CC(/C=C/[C@@H]1C[C@]1(C)c1ccc2c(c1)C(C)(C)CCC2(C)C)=C\C(=O)O [AGN 4204]
β-catenin mRNA level (β-catenin mRNA): no effects | expression of β-galactosidase protein from LacZ control (β-galactosidase): not significantly affected | reporter gene activity ([1]; SW480, low levels of endogenous RXRs only): not sufficient to produce an effect | reporter gene activity ([1]; SW480 cotransfected with RXRα, 0.1 μM, 17 hours): a decrease in reporter gene activity
